From patent US10850135B2, “Antiseptic-tolerant lactic acid bacteria” (AB-BIOTICS, S.A., priority 2016, dated 2020)

Assays:
Assay in all cases: Tolerance to antiseptics, disc diffusion assay
[1] = system: Streptococcus sp. strains (S. oralis, S. salivarius K12); format: cell-based
Description: (§1) LAB strains with presumed probiotic properties namely L. brevis, P. acidilactici, P. pentosaceus, S. oralis and S. salivarius were seeded in agar plates with the appropriate nutrient media and incubated in order to obtain isolated colonies. Porphyromonas gingivalis DSM20709 was used as an example of pathogens associated with periodontal pathologies. For each strain the nutritive media and atmospheric conditions used were the most suitable for their proper growth as summarized in TABLE 1.
(§2) For each microorganism, isolated colonies were used for preparing a suspension in Phosphate Buffered Saline 0.1M (PBS) with an optical density equivalent to a Mc Farland standard No. 3. The suspension was used for obtaining a confluent layer of microorganism over the corresponding nutrient medium (TABLE 1) by uniformly seeding the microorganism using a sterile swab.
(§3) Immediately after the inoculation of the strains in the plates, 6 mm of cellulose discs were placed. The discs were impregnated with different conventional antiseptics according to TABLE 2:
(§4) The volume used was the maximum allowed by the disc without spreading on the medium. The solvent was confirmed to not be inhibitory against the bacteria at the amount used. Microorganism were allowed to grow according to the conditions of TABLE 1, and halos of inhibition (in millimeters) measured after 24 h or 48 h according to the corresponding optimal growth conditions for the microorganisms. Results were obtained in triplicate.

[2] = system: Porphyromonas gingivalis DSM20709; format: cell-based
Description: as §1, §2, §3, §4

P. acidilactici CECT8633 = format: cell-based, Pediococcus acidilactici
Description: as §1, §2, §3, §4

L. brevis CD2 = format: cell-based, Lactobacillus brevis
Description: as §1, §2, §3, §4

[3] = system: Pediococcus strains (P. acidilactici CECT8633, P. acidilactici AB134, P. pentosaceus CECT8330); format: cell-based, Pediococcus sp.; details: for resistance compared with the other strains tested (disc diffusion): vs L. brevis, Streptococcus sp. and P. gingivalis
Description: as §1, §2, §3, §4

[4] = system: Pediococcus pentosaceous CECT8330; format: cell-based, Pediococcus pentosaceus; details: 6 mm discs impregnated with chlorhexidine; concentration not given
Description: as §1, §2, §3
The volume used was the maximum allowed by the disc without spreading on the medium. […] Microorganism were allowed to grow according to the conditions of TABLE 1, and halos of inhibition (in millimeters) measured after 24 h or 48 h according to the corresponding optimal growth conditions for the microorganisms. […]

P. acidilactici AB134 = format: cell-based, Pediococcus acidilactici; details: 6 mm discs impregnated with chlorhexidine; concentration not given
Description: as §1, §2, §3, §4

[5] = highest concentration tested 0.12%, v/v
[6] = any of the concentration tested (0.12%, 0.06%, 0.03%)
[7] = 6 mm discs impregnated with chlorhexidine, concentration not given
[8] = highest concentration tested 1.2 mg/mL, 5 uL per disc
[9] = triclosan at different concentrations (0.2%, 0.1%, 0.05%), 5 uL per disc

## N=C(NCCCCCCNC(=N)NC(=N)Nc1ccc(Cl)cc1)NC(=N)Nc1ccc(Cl)cc1.O=C(O)[C@H](O)[C@@H](O)[C@H](O)[C@H](O)CO.O=C(O)[C@H](O)[C@@H](O)[C@H](O)[C@H](O)CO [chlorhexidine gluconate]
[1]; [5]
  inhibition (halo, disc diffusion): all the strains were inhibited
[2]; [5]
  inhibition (halo, disc diffusion): all the strains were inhibited
P. acidilactici CECT8633; chlorhexidine gluconate 0.12%, 20 μl per 6-mm disc (FIG. 7)
  inhibition halo compared with S. salivarius K12 and P. gingivalis: lower inhibition halo
L. brevis CD2; [5]
  inhibition (halo, disc diffusion): all the strains were inhibited
[3]; [5]
  inhibition (halo, disc diffusion): all the strains were inhibited
[3]
  resistance compared with the other strains tested (disc diffusion): highest resistance

## NC(=NCCCCCCN=C(N)/N=C(\N)Nc1ccc(Cl)cc1)/N=C(\N)Nc1ccc(Cl)cc1 [chlorhexidine, (1E)-2-[6-[[amino-[(E)-[amino-(4-chloroanilino)methylidene]-amino]methylidene]amino]hexyl]-1-[amino-(4-chloroanilino)methylidene]guanidine]
[4]
  inhibition halo: 4 mm
[1]; [6]
  inhibition (halo, disc diffusion): inhibited at any of the concentration tested
[1]; [5]
  inhibition (halo, disc diffusion): all the strains were inhibited
[2]; [7]
  inhibition halo: 9 mm
[2]; [6]
  inhibition (halo, disc diffusion): inhibited at any of the concentration tested
[2]; [5]
  inhibition (halo, disc diffusion): all the strains were inhibited
P. acidilactici CECT8633; [7]
  inhibition halo: 3 mm
P. acidilactici AB134
  inhibition halo: 2 mm
L. brevis CD2; concentrations of 0.12% and 0.06%
  inhibition (halo, disc diffusion): inhibited
L. brevis CD2; [5]
  inhibition (halo, disc diffusion): all the strains were inhibited
[3]; [5]
  inhibition (halo, disc diffusion): all the strains were inhibited
[3]
  resistance compared with the other strains tested (disc diffusion): greatest resistance

## Cc1ccc(C(C)C)c(O)c1 [thymol, 2-isopropyl-5-methylphenol]
[1]; [8]
  growth inhibition (halo, disc diffusion): inhibited the growth
[2]; [8]
  growth inhibition (halo, disc diffusion): inhibited the growth

## Oc1cc(Cl)ccc1Oc1ccc(Cl)cc1Cl [triclosan, 5-Chloro-2-(2,4-dichlorophenoxy)phenol]
[1]; [9]
  inhibition (halo, disc diffusion): inhibited
[2]; [9]
  inhibition (halo, disc diffusion): inhibited
L. brevis CD2; [9]
  inhibition (halo, disc diffusion): neither Lactobacillus brevis nor the strains belonging to Pediococcus genus were inhibited
[3]; [9]
  inhibition (halo, disc diffusion): neither Lactobacillus brevis nor the strains belonging to Pediococcus genus were inhibited
